Data on eleven molecules can be found in paper doi:10.64898/2026.05.07.723658, “Substrate-dependent crosslinking by the cytochrome P450 from aminopyruvatide biosynthesis” (bioRxiv, 2026).

Where a SMILES comes first, the peptide text is derived from it. The star is where a group is joined. For = O=C*

Data set [1] has as its target T1, angiotensin I-converting enzyme (ACE) (Oryctolagus cuniculus, UniProt P12822).
T1 construct: purchased Sigma A6778
T1 sequence (P12822 34-1310): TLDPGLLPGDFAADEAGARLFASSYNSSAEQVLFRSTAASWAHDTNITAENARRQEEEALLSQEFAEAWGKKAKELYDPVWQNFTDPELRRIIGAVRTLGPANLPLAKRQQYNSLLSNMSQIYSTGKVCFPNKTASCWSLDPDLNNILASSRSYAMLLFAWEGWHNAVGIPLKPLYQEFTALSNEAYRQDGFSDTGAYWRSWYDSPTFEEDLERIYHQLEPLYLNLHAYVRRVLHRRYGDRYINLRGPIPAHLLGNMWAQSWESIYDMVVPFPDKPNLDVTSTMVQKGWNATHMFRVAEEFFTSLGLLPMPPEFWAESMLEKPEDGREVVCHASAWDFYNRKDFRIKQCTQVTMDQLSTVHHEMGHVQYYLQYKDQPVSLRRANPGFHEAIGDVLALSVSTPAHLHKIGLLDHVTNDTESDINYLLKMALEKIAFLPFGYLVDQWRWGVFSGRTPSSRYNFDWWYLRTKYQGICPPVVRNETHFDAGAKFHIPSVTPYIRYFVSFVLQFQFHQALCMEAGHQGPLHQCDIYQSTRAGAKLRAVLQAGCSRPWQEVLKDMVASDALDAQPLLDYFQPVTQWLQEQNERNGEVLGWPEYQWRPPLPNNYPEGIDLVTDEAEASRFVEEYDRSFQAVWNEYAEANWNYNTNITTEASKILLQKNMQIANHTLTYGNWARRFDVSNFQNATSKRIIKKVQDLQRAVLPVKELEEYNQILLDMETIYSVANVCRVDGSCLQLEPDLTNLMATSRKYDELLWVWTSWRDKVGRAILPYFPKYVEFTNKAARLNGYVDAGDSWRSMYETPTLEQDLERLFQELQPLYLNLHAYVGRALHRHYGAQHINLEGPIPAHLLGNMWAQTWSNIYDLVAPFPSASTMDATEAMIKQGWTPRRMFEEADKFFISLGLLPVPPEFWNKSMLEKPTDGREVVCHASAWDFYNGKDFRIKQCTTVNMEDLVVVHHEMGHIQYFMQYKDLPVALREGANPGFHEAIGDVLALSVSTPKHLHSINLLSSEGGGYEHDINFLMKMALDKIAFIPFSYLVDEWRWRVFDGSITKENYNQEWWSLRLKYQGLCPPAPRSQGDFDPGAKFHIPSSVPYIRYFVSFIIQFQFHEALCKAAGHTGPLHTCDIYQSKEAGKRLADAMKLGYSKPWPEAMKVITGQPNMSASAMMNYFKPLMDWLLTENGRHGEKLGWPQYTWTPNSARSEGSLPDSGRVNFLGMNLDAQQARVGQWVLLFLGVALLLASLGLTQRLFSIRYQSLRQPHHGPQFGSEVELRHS
The data set can be described thus: biochemical. The conditions noted are these: 15 min preincubation at room temperature; substrate Abz-FRK(Dnp)-P-OH; 37 °C.

The subject of data set [2] is cytochrome P450 ApyO.
For data set [3], the target named is T2, trypsin (Sus scrofa, UniProt P00761).
T2 construct: purchased Promega V5111
T2 sequence (P00761 9-231): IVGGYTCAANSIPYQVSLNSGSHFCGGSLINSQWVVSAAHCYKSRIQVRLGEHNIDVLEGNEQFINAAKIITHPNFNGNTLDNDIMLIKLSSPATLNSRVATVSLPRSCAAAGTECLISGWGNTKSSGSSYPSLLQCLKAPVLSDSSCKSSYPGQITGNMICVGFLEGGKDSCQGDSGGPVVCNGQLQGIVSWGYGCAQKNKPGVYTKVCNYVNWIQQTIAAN
The format is biochemical.

For data set [4], the target named is T3, main protease from SARS-CoV-2 virus (Mpro) (Severe acute respiratory syndrome coronavirus 2, UniProt P0DTD1).
T3 construct: Cayman chemical) was used; purchased Cayman chemical 701960
Format: biochemical.

For data set [5], the target named is T4, chymotrypsin (Bos taurus, UniProt P00766).
T4 construct: purchased Promega V1061
The format is biochemical.

Consider `NCC(=O)N[C@H]1Cc2ccc(O)c(c2)Oc2ccc(cc2)C[C@@H](C(=O)N[C@@H](CC(=O)O)C(=O)O)NC(=O)[C@H](Cc2ccc(O)cc2)NC1=O` (single isomer, unassigned) [L7Y isomer-2], for which inhibition in data set [1] was half-maximal at 1.1 µM (IC50).

In the case of `CSCC[C@H](NC=O)C(=O)N[C@@H](CCCNC(=N)N)C(=O)N[C@@H](CCSC)C(=O)NCC(=O)N[C@@H](CCC(=O)O)C(=O)NCC(=O)N[C@@H](Cc1ccc(O)cc1)C(=O)N[C@@H](CC(C)C)C(=O)N[C@@H](Cc1ccc(O)cc1)C(=O)N[C@@H](CC(=O)O)C(=O)O` [ApyAct, MRMGEGYLYD] (For-MRMGEGYLYD-OH), in data set [2], the “conversion by ApyO” value was “about 70%”.

`CSCC[C@H](NC=O)C(=O)N[C@@H](CCCNC(=N)N)C(=O)N[C@@H](CCSC)C(=O)NCC(=O)N[C@@H](CCC(=O)O)C(=O)NCC(=O)N[C@@H](Cc1ccc(O)cc1)C(=O)N[C@@H](Cc1ccccc1)C(=O)N[C@@H](Cc1ccc(O)cc1)C(=O)N[C@@H](CC(=O)O)C(=O)O` [L7F] (For-MRMGEGYFYD-OH): in data set [2], the “conversion by ApyO” value is listed as ~ 8%.

As to `CSCC[C@H](NC=O)C(=O)N[C@@H](CCCNC(=N)N)C(=O)N[C@@H](CCSC)C(=O)NCC(=O)N[C@@H](CCC(=O)O)C(=O)NCC(=O)N[C@@H](Cc1ccc(O)cc1)C(=O)NCC(=O)N[C@@H](Cc1ccc(O)cc1)C(=O)N[C@@H](CC(=O)O)C(=O)O` [L7G] (For-MRMGEGYGYD-OH), the “conversion by ApyO” value in data set [2] is listed as ~ 1%.

`CC[C@H](C)[C@H](NC(=O)[C@H](Cc1ccc(O)cc1)NC(=O)CNC(=O)[C@H](CCC(=O)O)NC(=O)CNC(=O)[C@H](CCSC)NC(=O)[C@H](CCCNC(=N)N)NC(=O)[C@H](CCSC)NC=O)C(=O)N[C@@H](Cc1ccc(O)cc1)C(=O)N[C@@H](CC(=O)O)C(=O)O` [L7I] (For-MRMGEGYIYD-OH): in data set [2], the “conversion by ApyO” value is ~ 60%.

As for `CSCC[C@H](NC=O)C(=O)N[C@@H](CCCNC(=N)N)C(=O)N[C@@H](CCSC)C(=O)NCC(=O)N[C@@H](CCC(=O)O)C(=O)NCC(=O)N[C@@H](Cc1ccc(O)cc1)C(=O)N[C@H](C(=O)N[C@@H](Cc1ccc(O)cc1)C(=O)N[C@@H](CC(=O)O)C(=O)O)[C@@H](C)O` [L7T] (For-MRMGEGYTYD-OH), the “conversion by ApyO” value in data set [2] is given as ~ 3%.

Turning to `CSCC[C@H](NC=O)C(=O)N[C@@H](CCCNC(=N)N)C(=O)N[C@@H](CCSC)C(=O)NCC(=O)N[C@@H](CCC(=O)O)C(=O)NCC(=O)N[C@@H](Cc1ccc(O)cc1)C(=O)N[C@H](C(=O)N[C@@H](Cc1ccc(O)cc1)C(=O)N[C@@H](CC(=O)O)C(=O)O)C(C)C` [L7V] (For-MRMGEGYVYD-OH), the “conversion by ApyO” value in data set [2] was ~ 57%.

With `CSCC[C@H](NC=O)C(=O)N[C@@H](CCCNC(=N)N)C(=O)N[C@@H](CCSC)C(=O)NCC(=O)N[C@@H](CCC(=O)O)C(=O)NCC(=O)N[C@@H](Cc1ccc(O)cc1)C(=O)N[C@@H](Cc1c[nH]c2ccccc12)C(=O)N[C@@H](Cc1ccc(O)cc1)C(=O)N[C@@H](CC(=O)O)C(=O)O` [L7W] (For-MRMGEGYWYD-OH), the “conversion by ApyO” value in data set [2] was ~ 39%.

Consider `CSCC[C@H](NC=O)C(=O)N[C@@H](CCCNC(=N)N)C(=O)N[C@@H](CCSC)C(=O)NCC(=O)N[C@@H](CCC(=O)O)C(=O)NCC(=O)N[C@@H](Cc1ccc(O)cc1)C(=O)N[C@@H](Cc1ccc(O)cc1)C(=O)N[C@@H](Cc1ccc(O)cc1)C(=O)N[C@@H](CC(=O)O)C(=O)O` [L7Y] (For-MRMGEGYYYD-OH), for which the “conversion by ApyO” value in data set [2] is on record as “near quantitative”.

With `CSCC[C@H](NC=O)C(=O)N[C@@H](CCCCN)C(=O)N[C@@H](CCSC)C(=O)NCC(=O)N[C@@H](CCC(=O)O)C(=O)NCC(=O)N[C@@H](Cc1ccc(O)cc1)C(=O)N[C@@H](CC(C)C)C(=O)N[C@@H](Cc1ccc(O)cc1)C(=O)N[C@@H](CC(=O)O)C(=O)O` [R1K] (For-MKMGEGYLYD-OH), the “conversion by ApyO” value in data set [2] is ~ 8%.

`CC(C)C[C@@H]1NC(=O)[C@@H](NC(=O)CN)Cc2ccc(O)c(c2)-c2cc(ccc2O)C[C@@H](C(=O)N[C@@H](C)C(=O)C(=O)O)NC1=O` [desmethylaminopyruvatide A]: in data set [3], the inhibition of trypsin entry was “No inhibition”. The “inhibition of Mpro” value in data set [4] was “No inhibition”. Besides, the inhibition of chymotrypsin result in data set [5] is recorded as “No inhibition”.
